Data: paper PMC7762498, “Demethoxycurcumin analogue DMC-BH exhibits potent anticancer effects on orthotopic glioblastomas” (Aging (Albany NY), 2020)
Read-outs that look alike come from different tables or passages of the source.

Assays:
[1] = BBB penetrability (brain-to-plasma AUC ratio); type: in vivo
Excerpt: To determine whether DMC-BH inhibits the growth of glioma in the brain, we assessed its octanol-water partition coefficients and BBB penetrability. The hydrophobic parameters (logP) of DMC-BH and DMC were estimated under physiological as well as in acidic and basic conditions. The logP values for DMC-BH were negative at pH 2.5 and pH 9.0, as it was an amphoteric compound. At low pH or high pH conditions, DMC-BH occurred in the form of salts, and its logP values became negative due to better solubility.
Figure 2 Octanol-water partition coefficients (logP) and BBB penetrability of DMC-BH. (A) The logP was defined as log(Coctanol/Cwater). The amount of the compound in the water phase was determined spectrophotometrically, and the amount in the octanol phase was obtained by subtracting the supernatant concentration from the total concentration. (B) The BBB penetrability was defined as a brain-to-plasma AUC(time point) ratio. Values are expressed as the means ± SEM of 3 independent experiments.

[2] = system: human glioblastoma U87-Luc cells; test: Orthotopic glioblastoma xenograft (BLI, immunohistochemistry); type: in vivo, mice; conditions: for tumor growth (BLI): U87-Luc orthotopic xenograft, nude mice, 20 mg/kg intraperitoneal; for percentage of TUNEL-positive cells / Ki67-positive rate: orthotopic xenograft tissue, 20 mg/kg; for percentage of TUNEL-positive cells: control 3.30% ± 0.26%; for Ki67-positive rate: untreated group 36.73% ± 4.82%
Description: We used orthotopic glioblastoma xenografts transplanted into mice by human glioblastoma U87-Luc cells to quantify the anti-tumor effect of DMC-BH and DMC. Tumor growth was recorded in vivo using Bioluminescent Imaging (BLI). […] The sizes of the tumors in the mice treated with DMC-BH were much smaller than those in the DMC-treated group or control group (P < 0.05) (Figure 4B). […] In addition, no significant body weight loss occurred in any of the three groups (P > 0.05) (Figure 4C).
Figure 4 The effects of DMC-BH and DMC on tumor growth in orthotopic glioblastoma xenograft models. (A) U87-Luc xenograft tumor-bearing nude mice were treated with 20 mg/kg DMC-BH, 20 mg/kg DMC or isometric saline for 18 days. The growth of orthotopic glioblastoma xenografts was monitored by BLI. (B) The sizes of orthotopic glioblastoma xenografts were measured using an IVIS spectrum image system. (C) The body weight of animals was measured after DMC-BH, DMC or isometric saline treatment.
Figure 5 The effects of DMC-BH and DMC on orthotopic glioblastoma growth were analyzed by immunohistochemical staining. (A) The orthotopic glioblastoma growth potential after treatment with 20 mg/kg DMC-BH or DMC treatment was evaluated by Ki67 immunohistochemistry. (B) The orthotopic glioblastoma apoptosis rate after treatment with 20 mg/kg DMC-BH or DMC was analyzed by TUNEL staining.
Thirty-six male nude mice weighing between approximately 18 g and 20 g and aged 6 to 8 weeks were divided into a control group, DMC group and DMC-BH group. The nude mice were handled under a laminar flow hood, and the feed, bedding, cage and contact instruments were all used after high pressure disinfection. The amplified U87-Luc cells were passaged in a 6 cm culture dish and placed in a 5% CO2 incubator. Ten percent chloral hydrate (40 μL/10 g) was used to anesthetize nude mice, and the nude mice were fixed on a stereotaxic apparatus when they were under deep anesthesia. We began to digest the U87-Luc cells once the mice were immobilized. The concentration of cells was 1 × 10^8/mL. Using a micro syringe, we slowly drew up 5 μL cells. Then 5 × 10^5 U87-Luc cells were injected into the caudate nucleus of the nude mice through an infusion of 1 μL/min. The orthotopic glioblastoma growth was quantified by BLI using an IVIS SPECTRUM 200 system (Perkin Elmer). Either DMC-BH or DMC was administered via intraperitoneal injection at a dose level of 20 mg/kg per injection. The drug administration started 10 days after intracranial implantation of U87-Luc cells, and in vivo imaging confirmed that the tumors were formed. The drug was administered continuously for 18 days. Control mice received an equivalent volume of physiologic solution each day. At day 18, all animals were sacrificed by CO2 inhalation.
Anesthetize mice with 2-3% isoflurane. Inject mice intraperitoneally with D-luciferin (150 μl of 15 mg/ml stock). Ten minutes after luciferin injection assess bioluminescent signal over an integration time of 10 and 60 s using a cooled charge-coupled device (CCD) camera (Spectrum; Caliper Life Sciences, Hopkinton, MA, USA). BLI was used to monitor tumor growth and response to therapy using the IVIS spectrum imaging system.
Following perfusion, the whole brain was immersed in 10% neutral paraformaldehyde buffer solution and fixed for 48 hours at room temperature. Routine dehydration and paraffin embedding were performed after fixation. Paraffin blocks were sliced to a thickness of 3 μm. We dewaxed tissue sections with xylene and rehydrated them through an ethanol gradient. The sections were then rinsed 2 times for 5 minutes with PBS. Incubate with 3% methanol solution of hydrogen peroxide for 20 minutes. Sections were then incubated in 5% goat serum for 10 minutes at room temperature. Serum was removed, and the sections were incubated with the first antibody at 4° C degree overnight. After PBS flushing, we added a secondary biotin-conjugated antibody. […]

[3] = Rat pharmacokinetic study; type: in vivo, rats; set-up: Vz_F_obs (volume of distribution): unit not given here; conditions: for MRT last: read-out: MRTlast (mean residence time); for half-life: read-out: T1/2 (half-life) (converted)
Description: Rat PK studies were performed to study whether DMC-BH is more bioavailable than did DMC.
Female Sprague-Dawley (SD) rats (n = 3) were purchased from the Shanghai Experimental Animal Center of Chinese Academy of Science (Shanghai, China). After 3 days of acclimatization, DMC-BH or DMC was administered intravenously into the jugular vein catheters at a dose of 1.00 mg/kg. After oral administration, blood samples (250 μL) were collected via jugular vein catheters at 30, 60, 90, 120, 150, 180 and 240 minutes and 8, 12 and 24 hours. Plasma samples were prepared by centrifuging the blood samples at 13,000 g for 5 minutes. All plasma samples were stored immediately at -80° C until analyzed. Analytes were extracted from 100 μL of plasma with 300 μL of acetonitrile containing 125 ng/mL of the internal standard (midazolam). The samples were thoroughly mixed and centrifuged at 8,000 g. The organic extract was added to 150 μL of 5mM NH4FA and transferred to the autosampler for LC-MS/MS analysis. Multiple reaction monitoring mode, a highly specific and sensitive label-free technique was performed by scanning the most sensitive signals. The pharmacokinetic parameters were determined using non-compartmental analysis (WinNonlin, Pharsight Corporation, Mountain View, CA, USA).

[4] = female, Sprague-Dawley, plasma, iv, 1.00 mg/kg
[5] = female, Sprague-Dawley, plasma, po, i.g., 10.0 mg/kg

COc1cc(C=CC(=O)CC(=O)C=Cc2ccc(O)c(CN3CCCC3)c2)ccc1O [DMC-BH, 1-[4-Hydroxy-3-(pyrrolidin-1-ylmethyl)phenyl]-7-(4-hydroxy-3-methoxyphenyl) hepta-1,6-diene-3,5-dione]
Kp at 4 h ([1]; brain and plasma): 4.6 | tumor growth (BLI) [2]: much greater tumor suppressive effects | percentage of TUNEL-positive cells [2]: 28.68% ± 5.15% | Ki67-positive rate [2]: 6.38% ± 1.38% | AUC(0-t) [3, 4]: 634 ± 127 ng·h/mL | Cmax ([3]; female, Sprague-Dawley, plasma, iv, 1.00 mg/kg, read-out: Cmax): 938 ± 231 ng/mL | MRT last [3, 4]: 1.85 ± 0.21 h | half-life [3, 4]: 2.54 ± 0.23 h | Tmax ([3]; female, Sprague-Dawley, plasma, iv, 1.00 mg/kg, read-out: Tmax): 0.08 h | Vd ([3]; female, Sprague-Dawley, plasma, iv, 1.00 mg/kg, read-out: Vz_F_obs (volume of distribution)): 4.9 ± 0.783 L/kg | bioavailability ([3]; female, Sprague-Dawley, plasma, oral, i.g. 10.0 mg/kg versus i.v. 1.00 mg/kg, read-out: F (percent oral bioavailability)): 57.1% | AUC(0-t) [3, 5]: 3620 ± 623 ng·h/mL | CL/F ([3]; female, Sprague-Dawley, plasma, po, i.g., 10.0 mg/kg, read-out: Cl_F_obs (plasma clearance rate) (converted)): 113 mL/min/kg | Cmax ([3]; female, Sprague-Dawley, plasma, po, i.g., 10.0 mg/kg, read-out: Cmax): 1260 ± 385 ng/mL | MRT last [3, 5]: 4.21 ± 0.16 h | half-life [3, 5]: 7.82 ± 1.54 h | Tmax ([3]; female, Sprague-Dawley, plasma, po, i.g., 10.0 mg/kg, read-out: Tmax): 1.45 ± 0.35 h | Vd/F ([3]; female, Sprague-Dawley, plasma, po, i.g., 10.0 mg/kg, read-out: Vz_F_obs (volume of distribution)): 54.4 ± 19.1 L/kg | Cl F obs (plasma clearance rate) ([3]; i.v., 1.00 mg/kg): 24.6 ± 4.28 mL/min/kg | increased exposure (AUC) when administered orally compared to DMC ([3]; oral): approximately 6 fold

Demethoxycurcumin [DMC, reference compound]
brain-to-plasma AUC(4h) ratio [1]: 0.56 | tumor growth (BLI) [2]: slight but significant tumor inhibitory effects | percentage of TUNEL-positive cells [2]: 3.33% ± 0.31% | Ki67-positive rate [2]: 22.17% ± 5.10% | F (percent oral bioavailability) ([3]; i.g. 10.0 mg/kg versus i.v. 1.00 mg/kg): 8.3% | AUClast ([3]; i.g., 10.0 mg/kg): 620 ± 271 ng·h/mL | Cl F obs (plasma clearance rate) ([3]; i.g., 10.0 mg/kg): 12.8 ± 1.63 mL/min/kg | Cmax ([3]; i.g., 10.0 mg/kg): 216 ± 46 ng/mL | MRTlast (mean residence time) ([3]; i.g., 10.0 mg/kg): 3.12 ± 0.45 h | T1/2 (half-life) ([3]; i.g., 10.0 mg/kg): 4.32 ± 1.98 h | Tmax ([3]; i.g., 10.0 mg/kg): 0.67 ± 0.12 h | Vz_F_obs (volume of distribution) ([3]; i.g., 10.0 mg/kg): 6543 ± 687 | AUClast ([3]; i.v., 1.00 mg/kg): 742 ± 254 ng·h/mL | Cl F obs (plasma clearance rate) ([3]; i.v., 1.00 mg/kg): 21.6 ± 3.67 mL/min/kg | Cmax ([3]; i.v., 1.00 mg/kg): 754 ± 275 ng/mL | MRTlast (mean residence time) ([3]; i.v., 1.00 mg/kg): 1.32 ± 0.29 h | T1/2 (half-life) ([3]; i.v., 1.00 mg/kg): 1.24 ± 0.21 h | Tmax ([3]; i.v., 1.00 mg/kg): 0.08 ± 0.00 h | Vz_F_obs (volume of distribution) ([3]; i.v., 1.00 mg/kg): 5421 ± 432
